Converted amounts (≈) assume the structure as drawn.
These compounds were tested on MRC5 (assay: Cytotoxicity against human MRC5 cells by MTT assay). Details: not given.
Assay type: cell-based
Compound `C[n+]1cc2c(cn3c4ccccc4ccc23)c2ccccc21.[I-]` has an IC50 of 30 µg/mL. `CN1Cc2c(cn3c2ccc2ccccc23)-c2ccccc21` gave an IC50 of 23.5 µg/mL (≈ 82.6 µM). `C/C=C/C1=CC=C/C(=C2\C(=O)CNC2=O)O1` [VERMELHOTIN] showed an IC50 of 6.97 µg/mL (≈ 32.1 µM).

The compounds below were run on Mycobacterium tuberculosis (assay: Antimycobacterial activity against Mycobacterium tuberculosis H37Rv after 7 days by microplate Alamar blue assay). Details: 168 h.
Assay type: functional
Work on `COCCC(=O)O` yielded an MIC of 100 µg/mL (≈ 961 µM). `COC(=O)CCC[N+](=O)[O-]` was tested, and the MIC was 25 µg/mL (≈ 170 µM). Work on `C[n+]1cc2c(cn3c4ccccc4ccc23)c2ccccc21.[I-]` yielded an MIC of 6.2 µg/mL. With `CN1Cc2c(cn3c2ccc2ccccc23)-c2ccccc21` the MIC was 6.2 µg/mL (≈ 21.8 µM). Compound `O=C(O)CC[N+](=O)[O-]` has an MIC of 12.5 µg/mL (≈ 105 µM). With `O=C1C[C@H]2SS[C@@]34C[C@@H]1[C@@H]([C@H]2O)N3C(=O)[C@@]12C[C@H]3C(=O)C[C@@H](S1)[C@H](O)[C@H]3N2C4=O` [EPICOCCIN A] the MIC was over 100 µg/mL. Work on `C/C=C/C1=CC=C/C(=C2\C(=O)CNC2=O)O1` [VERMELHOTIN] yielded an MIC of 6.2 µg/mL (≈ 28.5 µM).

What follows are compounds tested on Mycobacterium tuberculosis (assay: Antimycobacterial activity against p-Aminosalicylic acid-resistant Mycobacterium tuberculosis H37Rv ATCC 35821 after 7 days by microplate Alamar blue assay). Details: H37Rv ATCC 35821, 168 h.
Assay type: functional
Compound `C[n+]1cc2c(cn3c4ccccc4ccc23)c2ccccc21.[I-]` has an MIC of 1.5 µg/mL. `CN1Cc2c(cn3c2ccc2ccccc23)-c2ccccc21` was tested, and the MIC was 1.5 µg/mL (≈ 5.27 µM). `C/C=C/C1=CC=C/C(=C2\C(=O)CNC2=O)O1` [VERMELHOTIN] showed an MIC of 3.1 µg/mL (≈ 14.3 µM).

The compounds below were run on Mycobacterium tuberculosis (assay: Antimycobacterial activity against Mycobacterium tuberculosis H37Ra after 7 days by microplate Alamar blue assay). Details: 168 h.
Assay type: functional
Work on `COc1ccc2oc(=O)c(C(C)=O)cc2c1` yielded an MIC of over 100 µg/mL. With `COc1ccc2cc(C(C)=O)c(=O)oc2c1` the MIC was over 100 µg/mL. `COC(=O)c1cc2ccccc2oc1=O` was tested, and the MIC was over 100 µg/mL. `O=[N+]([O-])c1cccc2ncccc12` showed an MIC of 100 µg/mL (≈ 574 µM). `COC(=O)c1cc2c(ccc3ccccc32)oc1=O` was tested, and the MIC was 50 µg/mL (≈ 197 µM). `CC(=O)c1cc2cccc(O)c2oc1=O` was tested, and the MIC was over 100 µg/mL. `CC(=O)c1cc2cc(Cl)ccc2oc1=O` gave an MIC of over 100 µg/mL. With `O=C(c1ccccc1)c1cc2cc(Cl)ccc2oc1=O` the MIC was over 100 µg/mL. `O=C(c1ccccc1)c1cc2c(ccc3ccccc32)oc1=O` showed an MIC of over 100 µg/mL. `C/C=C(\C)c1c(Br)c(O)c(C)c2c1Oc1cc(O)c(Br)c(C)c1C(=O)O2` was tested, and the MIC was 50 µg/mL (≈ 103 µM). `O=C1CCCC2=C1C(c1c[nH]c3ccccc13)c1c(ccc3ccccc13)O2` (stereo unspecified) gave an MIC of over 100 µg/mL. With `COCCC(=O)O` the MIC was over 100 µg/mL. In the case of `COC(=O)CCC[N+](=O)[O-]`, the MIC was 12.5 µg/mL (≈ 85 µM). Work on `C/C=C(\C)c1c(Cl)c(OC)c(C)c2c1Oc1c(Cl)c(O)c(Cl)c(C)c1C(=O)O2` yielded an MIC of 100 µg/mL (≈ 225 µM). `C/C=C(\C)c1c(Cl)c(OC)c(C)c(O)c1Oc1c(Cl)c(O)c(Cl)c(C)c1C(=O)OC` gave an MIC of 100 µg/mL (≈ 210 µM). `COC(=O)[C@@H]1CC[C@@]23COC(=O)C2=CCC[C@@H]3[C@@]1(C)CC(=O)c1ccoc1` showed an MIC of over 100 µg/mL. `COc1cc(O)cc2cc3c(c(O)c12)C(=O)C[C@@](C)(O)C3` showed an MIC of 25 µg/mL (≈ 86.7 µM). `C[C@@H]1CCN2C[C@@]34C[C@@]5(CC(=O)N(C)C5=O)C(C)(C)[C@H]3C[C@@]12C(=O)N4C` was tested, and the MIC was 25 µg/mL (≈ 69.5 µM). `CC[C@@H](C)C[C@]1(C)C=C/C(=C2/C(=O)O[C@H](CC(=O)O)C2=O)O1` showed an MIC of 100 µg/mL (≈ 324 µM). For `CC[C@H](C)[C@@H](O)[C@@H](C)C(=O)O[C@H]1CC(CC(=O)[C@H]2[C@H](C)CCC[C@@H]2O)=C(C)C(=O)[C@@]1(C)O`, the MIC was over 100 µg/mL. Compound `CC[C@H](C)[C@@H](O)[C@@H](C)C(=O)O[C@@]1(C)C(=O)c2c(cc(O)c3c2CCC[C@H]3C)C(C)(O)C1=O` (stereo partly specified) has an MIC of over 100 µg/mL. For `C/C(=C\C=C\[C@H](O)[C@@H](C)O)[C@H](O)[C@H](C)C(=O)O[C@H]1C[C@H](C)C[C@@H]2C=C[C@H](C)[C@](C)(C(=O)CCO)[C@@H]12`, the MIC was over 100 µg/mL. For `C/C(=C\C=C\[C@H](O)[C@@H](C)O)[C@H](O)[C@H](C)C(=O)O[C@H]1C[C@H](C)C[C@@H]2C=C[C@H](C)[C@](C)(C(=O)C(O)CO)[C@@H]12` (stereo partly specified), the MIC was over 100 µg/mL. Work on `C/C(=C\C=C\[C@H](O)[C@@H](C)O)[C@H](O)[C@H](C)C(=O)O[C@H]1C[C@H](CO)C[C@@H]2C=C[C@H](C)[C@](C)(C(=O)C(O)CO)[C@@H]12` (stereo partly specified) yielded an MIC of over 100 µg/mL. `CC1=CC2=C(Cc3c(O)cc(C)oc3=O)C(=O)[C@](C)(O)[C@@H](O)C2=CO1` gave an MIC of over 100 µg/mL. With `O=C1c2c(O)cc(O)c([C@@H]3C(=O)c4c(O)cc(O)cc4O[C@H]3c3ccc(O)cc3)c2O[C@H](c2ccc(O)cc2)[C@H]1O` the MIC was over 100 µg/mL. With `O=C1NC(=O)/C(=C2/CCNC(=O)c3[nH]c(Br)cc32)N1` the MIC was over 100 µg/mL. With `CN1c2cccc([N+](=O)[O-])c2C2CC1OC1=C2C(=O)CC(C)(C)C1` (stereo unspecified) the MIC was over 100 µg/mL. `CN1c2ccccc2C2CC1OC1=C2C(=O)CC(C)(C)C1` (stereo unspecified) was tested, and the MIC was over 100 µg/mL. `CN1c2ccccc2C2CC1OC1=C2C(=O)CCC1` (stereo unspecified) was tested, and the MIC was over 100 µg/mL. `CC(=O)c1cc2ccccc2[nH]c1=O` gave an MIC of over 100 µg/mL. In the case of `O=C(c1ccccc1)c1cc2cc([N+](=O)[O-])ccc2oc1=O`, the MIC was 50 µg/mL (≈ 169 µM). For `CC1(C)CC(=O)C2=C(C1)Oc1ccccc1C2c1c[nH]c2ccccc12` (stereo unspecified), the MIC was 50 µg/mL (≈ 146 µM). Compound `CC1(C)CC(=O)C2=C(C1)Oc1c(O)cccc1C2c1c[nH]c2ccccc12` (stereo unspecified) has an MIC of 100 µg/mL (≈ 278 µM). For `COc1ccc2c(c1)OC1=C(C(=O)CC(C)(C)C1)C2c1c[nH]c2ccccc12` (stereo unspecified), the MIC was 100 µg/mL (≈ 268 µM). With `COc1ccc(Br)c2c1OC1=C(C(=O)CC(C)(C)C1)C2c1c[nH]c2ccccc12` (stereo unspecified) the MIC was over 100 µg/mL. Compound `CC1(C)CC(=O)C2=C(C1)Oc1c(cc(C(C)(C)C)cc1C(C)(C)C)C2c1c[nH]c2ccccc12` (stereo unspecified) has an MIC of over 100 µg/mL. `CCN(CC)c1ccc2c(c1)OC1=C(C(=O)CC(C)(C)C1)C2c1c[nH]c2ccccc12` (stereo unspecified) gave an MIC of over 100 µg/mL. With `C[n+]1cc2c(cn3c4ccccc4ccc23)c2ccccc21.[I-]` the MIC was 1.5 µg/mL. `CN1Cc2c(cn3c2ccc2ccccc23)-c2ccccc21` showed an MIC of 0.7 µg/mL (≈ 2.46 µM). `O=C(O)CC[N+](=O)[O-]` was tested, and the MIC was 50 µg/mL (≈ 420 µM). For `O=C1C[C@H]2SS[C@@]34C[C@@H]1[C@@H]([C@H]2O)N3C(=O)[C@@]12C[C@H]3C(=O)C[C@@H](S1)[C@H](O)[C@H]3N2C4=O` [EPICOCCIN A], the MIC was over 100 µg/mL. With `C/C=C/C1=CC=C/C(=C2\C(=O)CNC2=O)O1` [VERMELHOTIN] the MIC was 3.1 µg/mL (≈ 14.3 µM).

From ChEMBL document CHEMBL3352707, “Antimycobacterial activity of natural products and synthetic agents: pyrrolodiquinolines and vermelhotin as anti-tubercular leads against clinical multidrug resistant isolates of Mycobacterium tuberculosis” (Eur J Med Chem, 2015)
